Reference: article PMC12775434, “Ultra-large virtual screening unveils potent agonists of the neuromodulatory orphan receptor GPR139” (Nature Communications, 2025)
“And” between values parts separate entries of the source, which are not always exact repeats. Equal values may be shown once.

Columns and labels:
Assay type in all cases: cell-based
[1] = molecular target: T1, human muscarinic acetylcholine M1 receptor (M1R) (Homo sapiens, UniProt P11229); experiment: Ca2+ mobilization counter-screen in M1R-CHOk1 cells;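 note: 10 µM test compound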
T1 sequence (P11229 1-460): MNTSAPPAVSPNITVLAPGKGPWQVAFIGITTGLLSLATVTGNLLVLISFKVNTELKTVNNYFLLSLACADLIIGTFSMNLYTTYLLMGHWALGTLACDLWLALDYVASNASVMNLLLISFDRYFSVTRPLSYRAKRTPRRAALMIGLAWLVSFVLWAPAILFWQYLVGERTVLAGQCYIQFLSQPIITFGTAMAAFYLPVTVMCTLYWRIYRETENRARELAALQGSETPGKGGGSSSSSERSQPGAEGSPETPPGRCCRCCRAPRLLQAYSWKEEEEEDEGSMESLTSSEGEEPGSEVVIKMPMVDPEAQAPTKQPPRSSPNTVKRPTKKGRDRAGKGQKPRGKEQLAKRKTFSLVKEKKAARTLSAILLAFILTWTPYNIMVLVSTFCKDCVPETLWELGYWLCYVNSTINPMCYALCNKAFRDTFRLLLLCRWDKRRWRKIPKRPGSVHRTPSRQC
Summary of the method: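 Counter-screen used CHO-K1 cells stably carrying human M1R, Fluo-4 AM-loaded (2 µM, 1 h, 37 °C). Calcium signal measured at 485/525 nm after compound addition.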

GPR139 [2] = molecular target: T2, GPR139 (Homo sapiens, UniProt Q6DWJ6); experiment: Ca2+ mobilization assay, antagonist mode (EC80 800 nM Lundbeck Cmp 1a after 20 min preincubation), GPR139-CHOk1
T2 sequence (Q6DWJ6 1-353): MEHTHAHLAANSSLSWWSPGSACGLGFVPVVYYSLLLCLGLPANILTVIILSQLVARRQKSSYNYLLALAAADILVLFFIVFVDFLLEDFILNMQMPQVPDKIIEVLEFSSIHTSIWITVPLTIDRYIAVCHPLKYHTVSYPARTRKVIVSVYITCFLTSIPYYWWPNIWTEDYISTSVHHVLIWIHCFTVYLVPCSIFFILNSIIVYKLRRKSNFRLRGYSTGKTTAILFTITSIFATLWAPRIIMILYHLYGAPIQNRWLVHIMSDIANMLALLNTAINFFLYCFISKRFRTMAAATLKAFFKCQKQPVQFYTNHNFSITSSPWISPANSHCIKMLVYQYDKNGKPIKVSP
Summary of the method: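 Antagonist mode: 800 nM (EC80) reference agonist Lundbeck Cmp 1a added following 20 min pre-incubation with 10 µM compound. GPR139-CHOk1 cells, Fluo-4 dye, probenecid-containing HEPES buffer pH 7.4; intracellular Ca2+ measured at 37 °C (ex 485, em 525 nm).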

GPR139 [3] = molecular target: T2, GPR139; experiment: Ca2+ mobilization assay, agonist mode, stable GPR139-CHOk1 cell line; settings: for EC50 / Emax: Supplementary Table 2, mean ± SEM; for EC50: read-out: pEC50 Ca2+ (converted); for Emax: normalized to Lundbeck Cmp 1a, read-out: Emax (%) Ca2+
Summary of the method: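 Agonist activity of compounds is assessed in stably transfected CHO-K1 cells using the calcium dye Fluo-4 at 37 °C in HEPES-buffered HBSS (pH 7.4). Efficacy is expressed relative to the reference agonist Lundbeck Cmp 1a, set as 100%.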

[4] = individual replicates (Supplementary Figure 5)
[5] = individual replicates (Supplementary Figure 4)
[6] = Agonist mode, individual replicates (Supplementary Figure 4)
[7] = log [Compound] M = -4.5, individual replicate columns
[8] = log [Compound] M = -5.0, individual replicate columns
[9] = log [Compound] M = -5.5, individual replicate columns
[10] = log [Compound] M = -6.0, individual replicate columns
[11] = log [Compound] M = -6.5, individual replicate columns
[12] = log [Compound] M = -7.0, individual replicate columns
[13] = log [Compound] M = -7.5, individual replicate columns
[14] = log [Compound] M = -8.0, individual replicate columns
[15] = log [Compound] M = -8.5, individual replicate columns
[16] = log [Compound] M = -9.0, individual replicate columns

Row | SMILES | Ca2+ signal (% of Carbachol) [1, 4] | Ca2+ signal (% of Cmp 1a) (GPR139 [2]; [5]) | Ca2+ signal (% of Cmp 1a) (GPR139 [3]; [6]) | EC50 (GPR139 [3]) [nM] | Emax (GPR139 [3]) [%] | Ca2+ signal (% of Cmp 1a) (GPR139 [3]; [7]) | Ca2+ signal (% of Cmp 1a) (GPR139 [3]; [8]) | Ca2+ signal (% of Cmp 1a) (GPR139 [3]; [9]) | Ca2+ signal (% of Cmp 1a) (GPR139 [3]; [10]) | Ca2+ signal (% of Cmp 1a) (GPR139 [3]; [11]) | Ca2+ signal (% of Cmp 1a) (GPR139 [3]; [12]) | Ca2+ signal (% of Cmp 1a) (GPR139 [3]; [13]) | Ca2+ signal (% of Cmp 1a) (GPR139 [3]; [14]) | Ca2+ signal (% of Cmp 1a) (GPR139 [3]; [15]) | Ca2+ signal (% of Cmp 1a) (GPR139 [3]; [16]) | further results
1 | CCc1nc(-c2nc(CC(=O)NC(C)c3ccccc3)no2)co1 (stereo not drawn) [Compound 1.42, CCC1=NC(=CO1)C2=NC(CC(=O)NC(C)C=3C=CC=CC3)=NO2] | -1.26 % of Carbachol and 0.364 % of Carbachol and 1.26 % of Carbachol | 24 % of Cmp 1a and -10 % of Cmp 1a and 49 % of Cmp 1a | 76 % of Cmp 1a and 54 % of Cmp 1a and 64 % of Cmp 1a | 2000 | 78 ± 3 | 65 % of Cmp 1a and 81 % of Cmp 1a and 83 % of Cmp 1a | 44 % of Cmp 1a and 85 % of Cmp 1a and 76 % of Cmp 1a | 31 % of Cmp 1a and 75 % of Cmp 1a and 78 % of Cmp 1a | 9 % of Cmp 1a and 29 % of Cmp 1a and 21 % of Cmp 1a | -11 % of Cmp 1a and 1.56 % of Cmp 1a and 5.36 % of Cmp 1a | -2.41 % of Cmp 1a and 0.181 % of Cmp 1a and -5 % of Cmp 1a | -4.35 % of Cmp 1a and 3.27 % of Cmp 1a and -5.39 % of Cmp 1a | 5 % of Cmp 1a and -2.46 % of Cmp 1a and -2 % of Cmp 1a | -3 % of Cmp 1a and -4 % of Cmp 1a and 0.00955 % of Cmp 1a | -3.77 % of Cmp 1a and 10 % of Cmp 1a and 3.66 % of Cmp 1a | 
2 | Cc1cc(-c2nc(CC(=O)NC(C)c3ccccc3)no2)ns1 (stereo not drawn) [Compound 1.43, CC(NC(=O)CC1=NOC(=N1)C=2C=C(C)SN2)C=3C=CC=CC3] | -0.351 % of Carbachol and 1.19 % of Carbachol and 1.15 % of Carbachol | 4.33 % of Cmp 1a and 17 % of Cmp 1a and 5 % of Cmp 1a | 63 % of Cmp 1a and 81 % of Cmp 1a and 86 % of Cmp 1a | 1580 | 102 ± 7 | 114 % of Cmp 1a and 107 % of Cmp 1a and 84 % of Cmp 1a | 92 % of Cmp 1a and 86 % of Cmp 1a and 81 % of Cmp 1a | 82 % of Cmp 1a and 55 % of Cmp 1a and 100 % of Cmp 1a | 35 % of Cmp 1a and 11 % of Cmp 1a and 48 % of Cmp 1a | 14 % of Cmp 1a and -6.32 % of Cmp 1a and 5 % of Cmp 1a | -6 % of Cmp 1a and 6 % of Cmp 1a and -11 % of Cmp 1a | 0.152 % of Cmp 1a and 7 % of Cmp 1a and -5.32 % of Cmp 1a | 0.817 % of Cmp 1a and 5 % of Cmp 1a and 7 % of Cmp 1a | -1.79 % of Cmp 1a and -1.64 % of Cmp 1a and 0.136 % of Cmp 1a | 1.86 % of Cmp 1a and -3 % of Cmp 1a and -0.513 % of Cmp 1a | fold decrease in potency relative to parent compound 1 (GPR139 [3]; Ca2+ mobilization EC50): 3- to 25 fold
3 | COCC(NC(=O)NC(C)c1ccc(F)cc1F)c1ccccc1 (stereo not drawn) [Compound 6, COCC(NC(=O)NC(C)C=1C=CC(F)=CC1F)C=2C=CC=CC2] |  |  |  |  |  |  |  |  |  |  |  |  |  |  |  | Ca2+ signal (% of Carbachol) ([1]; individual replicates (Supplementary Figure 2)): -19 % of Carbachol and -0.753 % of Carbachol; Ca2+ signal (% of Cmp 1a) (GPR139 [2]; individual replicates (Supplementary Figure 1)): 39.4931 % of Cmp 1a and 54.2036 % of Cmp 1a and 45.3276 % of Cmp 1a; Ca2+ signal (% of Cmp 1a) (GPR139 [3]; 0.1 µM, individual replicates (Supplementary Figure 3)): -5.9 % of Cmp 1a and -10.9 % of Cmp 1a; Ca2+ signal (% of Cmp 1a) (GPR139 [3]; 1 µM, individual replicates (Supplementary Figure 3)): 3.9 % of Cmp 1a and 9.9 % of Cmp 1a; Ca2+ signal (% of Cmp 1a) (GPR139 [3]; 10 µM, individual replicates (Supplementary Figure 3)): 34.7 % of Cmp 1a and 32.7 % of Cmp 1a; activation of GPR139 at three concentrations (GPR139 [3]; 0.1, 1 and 10 µM, activity too low to reliably determine EC50): concentration-dependent activation of GPR139; Ca2+ signal (% of Cmp 1a) (GPR139 [3]; Agonist mode, individual replicates (Supplementary Figure 1)): 37 % of Cmp 1a and 42 % of Cmp 1a and 46 % of Cmp 1a; Ca2+ signal (% of Cmp 1a) (GPR139 [3]; primary screen, 10 µM compound, agonist mode, three columns = independent experiments): 37 % of Cmp 1a and 42 % of Cmp 1a and 46 % of Cmp 1a
